How the values were obtained:
[1] = tested on: Rattus norvegicus; experiment: Compound was evaluated for percent tranexamic acid recovered in rat urine within 24 hr after oral administration of 0.1 mmol/kg of body weight per mole of pro drug; assay type: ADME, organism-based; details: in vivo
[2] = Half-life in buffer at pH 7.5; assay type: ADME
[3] = Half-life in buffer at pH 1.2; assay type: ADME
[4] = tested on: Rattus norvegicus; experiment: Compound was evaluated for percent recovery of tranexamic acid in urine from rat within 24 hr after oral administration of the dose […] of body weight; assay type: ADME, organism-based; details: in vivo
[5] = tested on: Rattus norvegicus; experiment: Compound was evaluated for percent recovery of tranexamic acid in urine from rat within 24 hr after oral administration of the dose 1 mmol/kg of body weight; assay type: ADME, organism-based; details: in vivo
[6] = Half-life in 90% human heparinized plasma.; assay type: ADME
[7] = tested on: Rattus norvegicus; experiment: Compound was evaluated for percent tranexamic acid recovered in rat urine within 24 hr after oral administration of per moiety tranexamic acid; assay type: ADME, organism-based; details: in vivo
[8] = Half-life in phosphate buffer at pH 7.5; assay type: ADME
[9] = Half-life in phosphate buffer at pH 1.2; assay type: ADME
[10] = tested on: Rattus norvegicus; experiment: Compound was evaluated for percent tranexamic acid recovered in rat urine within 24 hr after oral administration of 0.1 mmol/kg of body weight.; assay type: ADME, organism-based; details: in vivo

Row | Structure (SMILES) | Absorption [1] [%] | half-life [2] [h] | half-life [3] [h] | half-life [6] [h] | Absorption [7] [%] | further results
1 | CC(OC(=O)C(C)C)OC(=O)[C@H]1CC[C@H](CN)CC1.Cl (stereo partly specified) | 71 | 140 | 22 | – | – | –
2 | CC(C)OC(=O)OC(C)OC(=O)[C@H]1CC[C@H](CN)CC1.Cl (stereo partly specified) | 43 | 144 | 58 | – | – | Recovery [4]: 43%; Recovery [5]: 86%
3 | CC(OC(=O)C(C)(C)C)OC(=O)[C@H]1CC[C@H](CN)CC1.Cl (stereo partly specified) | 43 | – | – | – | – | –
4 | C[C@]1(CN)CC[C@H](C(=O)OCOC(=O)[C@H]2CC[C@H](CN)CC2)CC1.Cl.Cl | 50 | 26 | 31 | 0.025 | 25 | Recovery [4]: 25%; Recovery [5]: 32%
5 | CCOC(=O)C(OC(=O)[C@H]1CC[C@H](CN)CC1)OC(=O)[C@H]1CC[C@](C)(CN)CC1.Cl.Cl (stereo partly specified) | 62 | 0.9 | 11 | – | 31 | –
6 | CC(OC(=O)[C@H]1CC[C@H](CN)CC1)OC(=O)[C@H]1CC[C@](C)(CN)CC1.Cl.Cl (stereo partly specified) | 42 | – | – | – | 21 | –
7 | CC(=O)OC(C)OC(=O)[C@H]1CC[C@H](CN)CC1.Cl (stereo partly specified) | 59 | 68 | 14 | 0.1 | – | –
8 | CCN(CC)C(=O)C(OC(=O)[C@H]1CC[C@H](CN)CC1)OC(=O)[C@H]1CC[C@](C)(CN)CC1.Cl.Cl (stereo partly specified) | 34 | – | – | – | 17 | –
9 | Cl.NCc1ccc(C(=O)OCOC(=O)[C@H]2CC[C@H](CN)CC2)cc1 | 35 | – | – | – | – | –
10 | Cl.NC[C@H]1CC[C@H](C(=O)OC2OC(=O)c3ccccc32)CC1 (stereo partly specified) | 44 | – | – | – | – | half-life [8]: 5 h; Recovery [4]: 44%; Recovery [5]: 54%
11 | C[C@]1(CN)CC[C@H](C(=O)OCc2oc(=O)oc2COC(=O)[C@H]2CC[C@H](CN)CC2)CC1.Cl.Cl | 54 | – | – | – | 27 | –
12 | CN(C)C(=O)C(OC(=O)[C@H]1CC[C@H](CN)CC1)OC(=O)[C@H]1CC[C@](C)(CN)CC1.Cl.Cl (stereo partly specified) | 54 | 6.7 | 38 | – | 27 | –
13 | CCC(OC(=O)[C@H]1CC[C@H](CN)CC1)OC(=O)[C@H]1CC[C@](C)(CN)CC1.Cl.Cl (stereo partly specified) | 26 | 70 | 29 | 0.1 | 13 | –
14 | Cl.NC[C@H]1CC[C@H](C(=O)Oc2ccc(CCC(=O)O)cc2)CC1 [CETRAXATE HYDROCHLORIDE] | 28 | – | – | – | – | –
15 | NC[C@H]1CC[C@H](C(=O)O)CC1 [TRANEXAMIC ACID] | – | – | – | – | – | Absorption [10]: 22%; Recovery [5]: 11%

The next lines start with results.

Row | Absorption [1] [%] | half-life [2] [h] | half-life [3] [h] | half-life [6] [h] | Absorption [7] [%] | Structure (SMILES) | further results
16 | 22 | 10 | 2 | – | – | CC(C)(C)C(=O)NCOC(=O)[C@H]1CC[C@H](CN)CC1.Cl | –
17 | 67 | – | – | – | – | Cc1oc(=O)oc1COC(=O)[C@H]1CC[C@H](CN)CC1.Cl | half-life [8]: 2 h; half-life [9]: 25 h
18 | 50 | 90 | 54 | 0.025 | – | CCOC(=O)OC(C)OC(=O)[C@H]1CC[C@H](CN)CC1.Cl (stereo partly specified) | Recovery [4]: 50%; Recovery [5]: 62%
19 | – | – | – | 4 | – | CCOC(=O)[C@H]1CC[C@H](CN)CC1.Cl | Absorption [10]: 92%
20 | 54 | 36 | 18 | 0.00833 | – | CC(C)C(=O)OCOC(=O)[C@H]1CC[C@H](CN)CC1.Cl | –
21 | 36 | 147 | 164 | 0.0333 | – | CC(C)(C)C(=O)OCOC(=O)[C@H]1CC[C@H](CN)CC1.Cl | Recovery [4]: 36%; Recovery [5]: 58%
